Measurements: patent US7011814B2, “Systems, methods and devices for in vivo monitoring of a localized response via a radiolabeled analyte in a subject” (Sicel Technologies, Inc., priority 2001, dated 2006)

Columns and labels:
[1] = in vivo monitoring of radiolabeled analyte uptake in tissue with subcutaneous fiber optic beta radiation probes
Experimental: The labeled glucose can be injected into the tail vein of test animals (such as rats) in a single bolus.
FIG. 11A illustrates a response profile graph (an integrated counts (above threshold) over time profile) taken over a monitored time period of about 85 minutes (study #2). The counts were taken on a thirty seconds/sample count time frame. In this experiment, a fiber optic probe was positioned subcutaneously in “normal” or non-cancerous tissue in the back of a Fisher 344 rat. A dose of 50 μCi of ^14C-2DG was injected in the tail vein. The data was monitored for about 85 minutes. […] The initial portion of the graph has values that represent “baseline” or dark current.
FIGS. 11B-11C illustrate graphs of data obtained using two probes, each placed subcutaneously in normal tissue of a 190 gram female Fisher 344 rat, one placed in the flank/inguinal and the other in the scapula (study #4). […] In this experiment, a bolus of 200 μCi of ^14C 2-DG was administered via intra-peritoneal (IP) injection. The data was monitored for about 96 minutes.

[2] = cited from earlier work

## C-14 labeled 2-deoxyglucose [^14C-2DG]
[1]; 50 μCi injected in tail vein, probe subcutaneous in normal tissue in back of Fisher 344 rat, study #2, FIG. 11A
  time from injection at which counts reached a plateau: about 10 minutes
[1]; 200 μCi bolus intra-peritoneal, two probes subcutaneous in normal tissue, 190 gram female Fisher 344 rat, monitored about 96 minutes, study #4, FIG. 11B
  concentration in scapula region compared to flank region: higher concentrations were obtained in the scapula region compared to the flank region
[1]; 200 μCi intra-peritoneal, flank/inguinal normal tissue probe, study #4, FIG. 11C
  time range in which peak or maxima point of concentration is reached (observed points): 20 to 50 min

## O=c1[nH]cc([18F])c(=O)[nH]1 [5-[F-18]FU]
[2]; PET, 120-minute acquisition time
  liver parenchyma uptake at the end of the acquisition time, relative to the maximum: 25%
[2]; PET, during the 120-minute acquisition time
  uptake in the metastases: low and relatively constant
[2]; PET, liver metastases
  mean uptake in metastases relative to liver uptake at the same time interval: one-third
[2]; PET, normal liver parenchyma
  time of highest uptake in normal liver parenchyma after onset of the infusion of the tracer: about 30 minutes

## O=c1[nH]cc(F)c(=O)[nH]1 [5-FU, 5-Fluorouracil]
[2]; PET with O-15 labeled water and 5-[F-18]FU
  lesions in which enhanced trapping was noted: 70%
